# “And” between values parts separate entries of the source, which are not always exact repeats. Equal entries are not always repeated. Where two headings read alike, the source gives them in different places.
# Key:
# Fn bacteria biofilms = conditions: for Absorbance, Average value: average of samples 1-5
# Experimental: THB (TODD-HEWITT BROTH) supplemented with 2% (w/v) sucrose was used as the medium. Sucrose is a sugar composed of the monosaccharides glucose and fructose with an α-1,2-glycosidic linkage and one of the disaccharides. THB manufactured by Becton, Dickinson and Company was used. For sucrose, “CASRN” manufactured by FUJIFILM Wako Pure Chemical Corporation was used. The plate used for culture was a Thermo Scientific Nunclon Delta Surface 96 well. The incubator used was a Panasonic multi-gas incubator MCO-5MUV-PJ. Culturing was conducted at 37° C. under an atmosphere of 5% CO2 gas, 5% O2 gas and 90% N2 gas.
# Fn bacteria were diluted in 2% sucrose-containing THB and 10 inoculated samples of […] each were plated onto cell culture plates (Thermo Scientific Nunclon Delta Surface 96well). […] No test solution was added to one of the […] inoculated samples.
# The samples were then cultured in a multi-gas incubator for 24 hours to allow biofilms to form on the bottom of each plate. After culturing, the plates were washed with distilled water and stained with 0.1% Crystal Violet solution for 10 minutes. After staining, the plates were washed with distilled water again and dried.
# (§1) Crystal Violet was then extracted with 100 μL of 99.5% ethanol (FUJIFILM Wako Pure Chemical Corporation), and the absorbance was measured at a wavelength of 590 nm using an absorption spectrometer grating microplate reader.
# hibiscus leaf = conditions: adjusted to pH 0.5; leaf surface wetted, observed after 20 hours
# Experimental: A hibiscus leaf was divided into left and right halves by the central vein. […] The surfaces of the half leaves were observed after 20 hours.
# [1] = tested on: Streptococcus mutans biofilms; conditions: for Absorbance, Average value: average of samples 1-6; for Absorbance: individual samples 1-6, medium replaced after biofilm formation, further 24 hours
# Description: (§2) FIGS. 3 to 6 show the experimental results in which Streptococcus mutans strains are actually used. Streptococcus mutans is a facultative anaerobe and a gram-positive streptococcus. It produces insoluble, sticky glucans that stick to tooth surfaces. It is one of the bacteria that mainly cause dental caries. THB (TODD-HEWITT BROTH) supplemented with 2% (w/v) sucrose was used as the medium. Sucrose is a sugar composed of the monosaccharides glucose and fructose with an α-1,2-glycosidic linkage and one of the disaccharides. THB manufactured by Becton, Dickinson and Company was used. For sucrose, “CASRN” manufactured by FUJIFILM Wako Pure Chemical Corporation was used. The plate used for culture was a Thermo Scientific Nunclon Delta Surface 96 well. The incubator used was a Panasonic multi-gas incubator MCO-5MUV-PJ. Culturing was conducted at 37° C. under an atmosphere of 5% CO2 gas, 5% O2 gas and 90% N2 gas.
# (§3) Devices and the like used to measure residual biofilms are described below. For staining, 0.1% Crystal Violet from FUJIFILM Wako Pure Chemical Corporation was used. It was dissolved in distilled water to 0.1% (w/v).
# (§4) Life Technologies EVOS XL Core was used as the microscope for photography. […] Co., Ltd. was used as the absorption spectrometer. The data processing software was “SF6” and the absorbance wavelength was 590 nm.
# (§5) Streptococcus mutans was diluted in 2% sucrose-containing THB and 10 inoculated samples of 100 μL each were plated onto cell culture plates (Thermo Scientific Nunclon Delta Surface 96well). The samples were then cultured in a multi-gas incubator for 24 hours to allow biofilms to form on the bottom of each plate.
# The media were removed and the plates were washed with distilled water 24 hours after the start of cultivation. […] The samples were further cultured in a multi-gas incubator for 24 hours. After culturing, the plates were washed with distilled water and stained with 0.1% Crystal Violet solution for 10 minutes. After staining, the plates were washed again with distilled water, dried and then observed and photographed using a bright field inverted microscope.
# [2] = tested on: Streptococcus mutans biofilms; conditions: for Absorbance, Average value: average of samples 1-6; for Absorbance, Average value / Absorbance: 590 nm; for Absorbance: individual samples 1-6, 24 hours culture
# Description: as §2, §3, §4
# Streptococcus mutans was diluted in 2% sucrose-containing THB and 10 inoculated samples of 100 μL each were plated onto cell culture plates (Thermo Scientific Nunclon Delta Surface 96well). […] No test solution was added to one of the 10 inoculated samples.
# The samples were then cultured in a multi-gas incubator for 24 hours to allow biofilms to form on the bottom of each plate. After culturing, the plates were washed with distilled water and stained with 0.1% Crystal Violet solution for 10 minutes. After staining, the plates were washed again with distilled water, dried and then observed and photographed with a bright field inverted microscope.
# as §1
# [3] = for Viscosity: 4 cc added to 150 g test sample, 25° C.
# Experimental: The starch syrup used was manufactured by KATO SANGYO CO., LTD. (product name “Kanpy starch syrup”) and the vegetable jelly used was from COOP (manufacturer: Ina Food Industry Co., Ltd.) (product name “Coop Agar”).
# Solutions for destroying biofilms adjusted to various pH values and a test solution were added to test mixtures of starch syrup and Coop Agar and the viscosity of each mixture was measured. Viscosity was measured using a “Viscotester (high viscosity type) VT-06” manufactured by RION Co., Ltd.
# First, starch syrup and Coop Agar were mixed in a beaker at a ratio of 34 to 5 and the viscosity was measured with a Viscotester (high viscosity type) VT-06. […] The mixture of starch syrup and Coop Agar to be used for the test (test sample) was prepared weighing 150 grams. […] To 150 g of the test sample, 4 cc of the test solution was added and the measurement was performed with a Viscotester (high viscosity type) VT-06. The room temperature was 25° C. and humidity was 63% when the test was conducted.
# [4] = tested on: Streptococcus mutans biofilms; conditions: for Absorbance, Average value: average of samples 1-6, 590 nm; for Absorbance trend: FIG. 5
# Description: as §2, §3, §4, §5
# The samples were further cultured in a multi-gas incubator for 24 hours. After culturing, the plates were washed with distilled water and stained with 0.1% Crystal Violet solution for 10 minutes. After staining, the plates were washed again with distilled water, dried and then observed and photographed using a bright field inverted microscope.
# as §1
smiles,measurement,setting,value
[2H]OS(=O)(=O)O[2H] [deuterated sulfuric acid (D2SO4)],"Absorbance, Average value","Fn bacteria biofilms; pH 0.5, 590 nm",0.123
same,Absorbance,"Fn bacteria biofilms; pH 0.5, individual samples 1-5, 590 nm, 24 hours culture",0.123 (2×) and 0.124 (2×) and 0.122
same,"Absorbance, Average value","Fn bacteria biofilms; pH 2.0, 590 nm",0.320
same,"Absorbance, Average value","Fn bacteria biofilms; pH 3.0, 590 nm",0.386
same,"Absorbance, Average value","Fn bacteria biofilms; pH 4.0, 590 nm",0.425
same,"Absorbance, Average value","Fn bacteria biofilms; pH 5.0, 590 nm",0.441
same,"Absorbance, Average value","Fn bacteria biofilms; pH 6.0, 590 nm",0.465
same,Biofilm formation from absorbance trend,"Fn bacteria biofilms; pH value below 4.5, compared to pH 6.0, FIG. 7",biofilm formation was made more difficult
same,"Leaf surface damage (white spotted areas, dead leaf cells)",hibiscus leaf,the white spotted areas surrounded by dotted lines are significantly smaller
same,"Colour of stained plate (photograph, remaining biofilm)","[1]; lower pH values, FIG. 3 lower panel",more biofilms were destroyed
same,"Absorbance, Average value",[1]; pH 0.5,0.590
same,Absorbance,[1]; pH 0.5,0.438 and 0.570
same,"Absorbance, Average value",[1]; pH 0.8,0.729
same,Absorbance,[1]; pH 0.8,0.649 and 0.678
same,Absorbance,[1]; pH 1.2,0.948 and 0.729 and 0.723
same,"Absorbance, Average value",[1]; pH 2.0,0.989
same,Absorbance,[1]; pH 2.0,0.951 and 0.966 and 0.921
same,"Absorbance, Average value",[1]; pH 2.3,1.083
same,Absorbance,[1]; pH 2.3,1.091 and 1.052 and 1.038
same,"Absorbance, Average value",[1]; pH 2.7,1.098
same,Absorbance,[1]; pH 2.7,1.167 and 1.149 and 1.070
same,"Absorbance, Average value",[1]; pH 3.0,1.038
same,Absorbance,[1]; pH 3.0,1.036 and 1.113
same,"Absorbance, Average value",[1]; pH 3.3,1.113
same,Absorbance,[1]; pH 3.3,1.044 and 1.117 and 1.054
same,"Absorbance, Average value",[1]; pH 3.7,1.107
same,Absorbance,[1]; pH 3.7,1.157 and 1.116 and 1.040
same,Biofilm destruction from absorbance trend,"[1]; pH below 2.0, FIG. 6",biofilms are destroyed
same,"Colour of stained plate (photograph, remaining biofilm)","[2]; pH 0.8, 1.2 and 1.5, FIG. 3 upper panel",biofilm formation is significantly inhibited and destroyed
same,"Absorbance, Average value",[2]; pH 0.8,0.089
same,Absorbance,[2]; pH 0.8,0.089 (3×) and 0.090 (2×) and 0.088
same,"Absorbance, Average value",[2]; pH 1.2,0.096
same,"Absorbance, Average value",[2]; pH 1.5,0.100
same,Absorbance,[2]; pH 2.3,0.734
same,Absorbance,[2]; pH 3.3,0.876
same,Absorbance,[2]; pH 3.7,0.874
same,Absorbance,[2]; pH 4.0,0.733
same,Biofilm formation from absorbance trend,"[2]; pH value below 2.3, FIG. 4",almost no biofilm was formed
same,Viscosity reduction compared to pH 7.0,[3]; pH 0.5,⅓
same,Viscosity,[3]; test solution pH 0.5,130 dPa · s
same,Viscosity,[3]; test solution pH 2.0,150 dPa · s
same,Viscosity,[3]; test solution pH 3.0,180 dPa · s
same,Viscosity,[3]; test solution pH 4.0,210 dPa · s
same,Viscosity,[3]; test solution pH 5.0,240 dPa · s
same,Viscosity,[3]; test solution pH 6.0,310 dPa · s
same,"Colour of stained plate (photograph, remaining biofilm)","[4]; lower pH values, FIG. 3 middle panel",more biofilms were destroyed
same,"Absorbance, Average value",[4]; pH 0.8,0.678
same,"Absorbance, Average value",[4]; pH 1.2,1.164
same,"Absorbance, Average value",[4]; pH 1.5,1.250
same,"Absorbance, Average value",[4]; pH 2.3,1.288
same,"Absorbance, Average value",[4]; pH 2.7,1.375
same,"Absorbance, Average value",[4]; pH 3.0,1.457
same,"Absorbance, Average value",[4]; pH 3.3,1.226
same,"Absorbance, Average value",[4]; pH 3.7,1.354
same,"Absorbance, Average value",[4]; pH 4.0,1.346
same,Absorbance trend,[4]; pH value below 1.5,absorbance decreased rapidly
same,Absorbance trend,[4]; pH value below 3.0,absorbance decreased gradually
"O=S(=O)(O)O [sulfuric acid (H2SO4), reference compound]","Leaf surface damage (white spotted areas, dead leaf cells)",hibiscus leaf,areas where leaf cells are dead

# — patent publication US20250176553A1, “SOLUTION FOR […] AND METHOD OF PRODUCING THEREOF” (OCT, Inc., priority 2022, published 2025)
